For the assay, the target named is T1, PDK1 Direct (Homo sapiens, UniProt O15530).
T1 sequence (O15530 1-556): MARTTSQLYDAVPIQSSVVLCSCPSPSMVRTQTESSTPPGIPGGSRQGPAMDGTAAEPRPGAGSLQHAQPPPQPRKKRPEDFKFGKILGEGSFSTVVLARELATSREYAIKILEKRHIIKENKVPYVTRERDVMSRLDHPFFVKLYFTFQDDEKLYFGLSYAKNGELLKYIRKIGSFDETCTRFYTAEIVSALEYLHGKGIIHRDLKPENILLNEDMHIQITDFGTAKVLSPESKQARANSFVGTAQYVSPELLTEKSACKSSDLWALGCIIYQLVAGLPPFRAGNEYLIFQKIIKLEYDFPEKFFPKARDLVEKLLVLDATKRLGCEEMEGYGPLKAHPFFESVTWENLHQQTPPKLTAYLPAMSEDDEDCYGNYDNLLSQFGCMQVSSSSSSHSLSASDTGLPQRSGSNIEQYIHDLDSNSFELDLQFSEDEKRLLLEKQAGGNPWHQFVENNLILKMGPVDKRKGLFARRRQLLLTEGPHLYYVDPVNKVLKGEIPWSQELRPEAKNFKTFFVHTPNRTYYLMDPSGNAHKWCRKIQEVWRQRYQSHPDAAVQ
Nature of the assay: Kinase selectivity for OMS14. In kind it is biochemical.

Data on one compound can be found in publication PMC10975593 (ACS Omega, 2024).

A word on the inhibition: it is the relative decrease from the control value, in per cent.

Like-named read-outs stand apart in the source and are kept apart here.

Regarding `O=C(CN1CCN(CC(=O)Nc2nc3ccccc3s2)CC1)Nc1ccc([N+](=O)[O-])cc1` [OMS14, N-(benzo[d]thiazol-2-yl)-2-(4-(2-((4-nitrophenyl)amino)-2-oxoethyl)piperazin-1-yl)acetamide], the inhibition at 100 µM by setting is: (read-out: % of inhibition (mean)) -7%; (read-out: % of inhibition, point 1) -6%; (read-out: % of inhibition, point 2) -8%.
